# ChEMBL document CHEMBL5465560, “Selectivity Literature for EUbOPEN Chemogenomic Library” (2024)
# Legend:
# [1] = target: T1, Mixed lineage kinase domain-like protein (Homo sapiens) (UniProt Q8NB16); assay: Selectivity interaction (Kinase panel (KiNativ target engagement assay in Jurkat cells)) EUB0001635a MLKL; format: cell-based; conditions: at 1 µM
# T1 sequence (whole entry): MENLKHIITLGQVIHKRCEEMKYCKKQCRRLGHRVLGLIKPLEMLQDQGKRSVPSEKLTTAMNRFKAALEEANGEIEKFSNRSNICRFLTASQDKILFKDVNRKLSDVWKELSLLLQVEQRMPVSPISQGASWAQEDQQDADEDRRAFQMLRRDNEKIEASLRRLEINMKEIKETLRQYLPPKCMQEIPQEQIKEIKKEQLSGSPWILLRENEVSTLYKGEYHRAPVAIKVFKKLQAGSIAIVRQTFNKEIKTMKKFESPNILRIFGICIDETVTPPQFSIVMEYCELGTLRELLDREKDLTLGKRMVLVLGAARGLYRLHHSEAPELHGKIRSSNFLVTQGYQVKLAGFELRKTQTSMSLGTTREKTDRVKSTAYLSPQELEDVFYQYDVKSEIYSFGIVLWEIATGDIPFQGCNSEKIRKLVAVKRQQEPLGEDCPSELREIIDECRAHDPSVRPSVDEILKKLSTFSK
# [2] = target: Bromodomain-containing protein 8 (Homo sapiens) (UniProt Q9H0E9); assay: Selectivity interaction (Human bromodomain panel (DSF assay)) EUB0000233b BRD8
# [3] = target: Protein kinase C eta type (Homo sapiens) (UniProt P24723); assay: Selectivity interaction (KinomeScan (DiscoverX)) EUB0000695a PRKCH; conditions: at 100 nM
# [4] = target: Serine/threonine-protein kinase N2 (Homo sapiens, UniProt Q16513); assay: Selectivity interaction (Kinase screening (Upstate/Millipore)) EUB0000604a PKN2
# [5] = target: Cyclin-dependent kinase 3 (Homo sapiens) (UniProt Q00526); assay: Selectivity interaction (KinomeScan (DiscoverX)) EUB0001049a CDK3; conditions: at 1 µM
# [6] = target: Protein kinase C delta type (Homo sapiens) (UniProt Q05655); assay: Selectivity interaction (ProQinase) EUB0000171b PRKCD
# [7] = target: Protein kinase C alpha type (Homo sapiens, UniProt P17252); assay: Selectivity interaction (ProQinase) EUB0000171b PRKCA
# [8] = target: LIM domain kinase 2 (Homo sapiens) (UniProt P53671); assay: Selectivity interaction (ProQinase) EUB0000171b LIMK2
# [9] = target: Mitogen-activated protein kinase 9 (Homo sapiens, UniProt P45984); assay: Selectivity interaction (SelectScreen profiling (Invitrogen)) EUB0000607a MAPK9; conditions: at 2 µM
# [10] = target: Casein kinase II subunit alpha (Homo sapiens, UniProt P68400); assay: Selectivity interaction (KinomeScan (DiscoverX)) EUB0000607a CSNK2A1; conditions: at 10 µM
# [11] = target: T2, Tyrosine-protein kinase ZAP-70 (Homo sapiens) (UniProt P43403); assay: Selectivity interaction (KinomeScan (DiscoverX)) EUB0000618a ZAP70; conditions: at 10 µM
# T2 sequence (whole entry): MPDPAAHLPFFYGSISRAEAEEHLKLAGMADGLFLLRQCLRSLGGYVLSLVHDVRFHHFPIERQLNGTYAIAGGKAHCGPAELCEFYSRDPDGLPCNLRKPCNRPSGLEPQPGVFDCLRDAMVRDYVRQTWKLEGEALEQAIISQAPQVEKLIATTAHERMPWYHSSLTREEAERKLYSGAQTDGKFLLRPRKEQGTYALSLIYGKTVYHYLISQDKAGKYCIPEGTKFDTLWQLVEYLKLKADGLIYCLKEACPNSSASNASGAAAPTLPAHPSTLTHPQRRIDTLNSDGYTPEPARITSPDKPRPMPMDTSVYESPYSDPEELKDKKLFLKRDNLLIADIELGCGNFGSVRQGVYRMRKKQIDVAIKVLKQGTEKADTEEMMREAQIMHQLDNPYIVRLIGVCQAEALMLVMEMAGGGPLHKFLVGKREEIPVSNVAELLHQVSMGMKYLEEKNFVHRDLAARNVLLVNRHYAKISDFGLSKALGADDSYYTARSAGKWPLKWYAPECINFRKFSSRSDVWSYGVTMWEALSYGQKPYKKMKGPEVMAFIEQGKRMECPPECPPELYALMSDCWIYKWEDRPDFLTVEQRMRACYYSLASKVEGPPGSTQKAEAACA
# Misshapen-like kinase 1 = Misshapen-like kinase 1 (Homo sapiens, UniProt Q8N4C8); assay: Selectivity interaction (Kinase panel (Invitrogen)) EUB0000639a MINK1; conditions: at 200 nM
# [12] = target: Receptor tyrosine-protein kinase erbB-4 (Homo sapiens, UniProt Q15303); assay: Selectivity interaction (Kinase panel (Invitrogen)) EUB0000639a ERBB4; conditions: at 200 nM
# [13] = target: Homeodomain-interacting protein kinase 3 (Homo sapiens, UniProt Q9H422); assay: Selectivity interaction (KinomeScan (DiscoverX)) EUB0000655a HIPK3; conditions: at 10 µM
# [14] = target: RAC-beta serine/threonine-protein kinase (Homo sapiens) (UniProt P31751); conditions: at 10 µM
# [15] = target: Serine/threonine-protein kinase RIO2 (Homo sapiens) (UniProt Q9BVS4); assay: Selectivity interaction (KinomeScan (DiscoverX)) EUB0000092b RIOK2; conditions: at 10 µM
# [16] = target: Calcium/calmodulin-dependent protein kinase kinase 1 (Homo sapiens) (UniProt Q8N5S9); assay: Selectivity interaction (Ambit KINOMEscan and KiNATiv profiling in Jurkat cells) EUB0000090b CAMKK1; format: cell-based; conditions: at 1 µM
# [17] = target: T3, Mitogen-activated protein kinase kinase kinase 7 (Homo sapiens) (UniProt O43318); assay: Selectivity interaction (Ambit KINOMEscan and KiNATiv profiling in Jurkat cells) EUB0000090b MAP3K7; format: cell-based; conditions: at 1 µM
# T3 sequence (whole entry): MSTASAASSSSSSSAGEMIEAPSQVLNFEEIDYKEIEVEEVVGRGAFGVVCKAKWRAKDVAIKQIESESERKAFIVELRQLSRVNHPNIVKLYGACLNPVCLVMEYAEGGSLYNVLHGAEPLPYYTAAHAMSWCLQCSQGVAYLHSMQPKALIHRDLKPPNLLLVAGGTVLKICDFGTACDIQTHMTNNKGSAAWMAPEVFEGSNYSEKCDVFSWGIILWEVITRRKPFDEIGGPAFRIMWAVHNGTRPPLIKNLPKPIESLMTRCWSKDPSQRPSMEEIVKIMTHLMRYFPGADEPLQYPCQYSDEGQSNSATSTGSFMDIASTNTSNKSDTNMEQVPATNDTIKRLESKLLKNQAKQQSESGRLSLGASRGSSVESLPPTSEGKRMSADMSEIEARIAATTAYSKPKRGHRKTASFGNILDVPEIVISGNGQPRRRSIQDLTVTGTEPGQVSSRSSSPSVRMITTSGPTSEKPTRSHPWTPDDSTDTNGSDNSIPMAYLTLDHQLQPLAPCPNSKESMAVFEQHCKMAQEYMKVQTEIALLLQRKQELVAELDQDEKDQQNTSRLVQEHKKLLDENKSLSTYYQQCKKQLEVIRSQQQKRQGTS
# Sequence of LIM domain kinase 2 (Homo sapiens) (P53671 whole entry, looked up, the tested form may be a part): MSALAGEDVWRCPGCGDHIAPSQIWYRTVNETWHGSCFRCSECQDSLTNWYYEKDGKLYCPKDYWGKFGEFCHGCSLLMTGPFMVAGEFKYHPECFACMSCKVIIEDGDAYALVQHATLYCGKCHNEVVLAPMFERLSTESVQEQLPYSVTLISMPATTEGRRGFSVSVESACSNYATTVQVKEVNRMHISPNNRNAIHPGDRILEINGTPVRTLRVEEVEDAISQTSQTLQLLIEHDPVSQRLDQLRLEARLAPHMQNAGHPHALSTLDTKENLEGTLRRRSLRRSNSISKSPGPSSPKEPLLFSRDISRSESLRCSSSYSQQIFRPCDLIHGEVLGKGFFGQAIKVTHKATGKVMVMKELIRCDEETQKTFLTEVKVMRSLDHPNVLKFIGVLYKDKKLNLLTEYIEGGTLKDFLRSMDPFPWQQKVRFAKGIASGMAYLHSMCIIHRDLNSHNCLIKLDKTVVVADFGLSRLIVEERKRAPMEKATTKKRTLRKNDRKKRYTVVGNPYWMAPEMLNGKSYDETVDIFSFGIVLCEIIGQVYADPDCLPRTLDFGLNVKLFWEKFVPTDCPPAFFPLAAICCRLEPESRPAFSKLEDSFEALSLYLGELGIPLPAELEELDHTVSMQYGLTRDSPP
# Sequence of Protein kinase C delta type (Homo sapiens) (Q05655 whole entry, looked up): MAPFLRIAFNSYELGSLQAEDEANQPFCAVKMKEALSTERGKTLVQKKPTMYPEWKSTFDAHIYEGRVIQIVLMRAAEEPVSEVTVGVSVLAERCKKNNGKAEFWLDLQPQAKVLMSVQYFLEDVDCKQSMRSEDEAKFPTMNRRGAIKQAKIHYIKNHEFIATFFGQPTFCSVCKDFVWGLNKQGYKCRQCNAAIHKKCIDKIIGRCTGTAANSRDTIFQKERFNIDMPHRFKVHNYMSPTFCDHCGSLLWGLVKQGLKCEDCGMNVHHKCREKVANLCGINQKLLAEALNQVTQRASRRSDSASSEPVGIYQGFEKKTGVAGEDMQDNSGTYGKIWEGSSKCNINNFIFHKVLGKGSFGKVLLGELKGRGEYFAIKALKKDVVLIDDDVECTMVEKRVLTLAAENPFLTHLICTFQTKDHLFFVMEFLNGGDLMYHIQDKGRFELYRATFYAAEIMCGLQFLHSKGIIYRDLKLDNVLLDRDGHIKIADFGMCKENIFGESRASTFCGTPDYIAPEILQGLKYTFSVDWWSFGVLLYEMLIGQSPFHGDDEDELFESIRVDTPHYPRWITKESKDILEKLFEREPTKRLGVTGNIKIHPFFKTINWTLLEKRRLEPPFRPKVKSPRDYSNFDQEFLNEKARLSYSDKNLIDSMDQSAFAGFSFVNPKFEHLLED
# Sequence of Calcium/calmodulin-dependent protein kinase kinase 1 (Homo sapiens) (Q8N5S9 whole entry, looked up): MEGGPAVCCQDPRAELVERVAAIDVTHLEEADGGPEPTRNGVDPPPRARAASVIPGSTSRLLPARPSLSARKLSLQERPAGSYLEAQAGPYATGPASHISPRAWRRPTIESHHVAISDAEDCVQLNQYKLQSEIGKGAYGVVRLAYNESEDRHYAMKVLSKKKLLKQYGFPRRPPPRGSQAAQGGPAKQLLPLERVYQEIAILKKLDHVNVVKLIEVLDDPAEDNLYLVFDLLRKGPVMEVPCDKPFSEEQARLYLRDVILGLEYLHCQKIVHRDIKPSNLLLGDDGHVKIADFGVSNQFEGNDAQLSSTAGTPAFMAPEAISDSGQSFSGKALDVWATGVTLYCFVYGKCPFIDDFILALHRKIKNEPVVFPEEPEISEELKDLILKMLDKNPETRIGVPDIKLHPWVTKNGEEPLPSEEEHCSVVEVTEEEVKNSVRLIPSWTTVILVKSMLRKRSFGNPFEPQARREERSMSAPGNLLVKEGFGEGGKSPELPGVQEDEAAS
# Sequence of Homeodomain-interacting protein kinase 3 (Q9H422 whole entry, looked up): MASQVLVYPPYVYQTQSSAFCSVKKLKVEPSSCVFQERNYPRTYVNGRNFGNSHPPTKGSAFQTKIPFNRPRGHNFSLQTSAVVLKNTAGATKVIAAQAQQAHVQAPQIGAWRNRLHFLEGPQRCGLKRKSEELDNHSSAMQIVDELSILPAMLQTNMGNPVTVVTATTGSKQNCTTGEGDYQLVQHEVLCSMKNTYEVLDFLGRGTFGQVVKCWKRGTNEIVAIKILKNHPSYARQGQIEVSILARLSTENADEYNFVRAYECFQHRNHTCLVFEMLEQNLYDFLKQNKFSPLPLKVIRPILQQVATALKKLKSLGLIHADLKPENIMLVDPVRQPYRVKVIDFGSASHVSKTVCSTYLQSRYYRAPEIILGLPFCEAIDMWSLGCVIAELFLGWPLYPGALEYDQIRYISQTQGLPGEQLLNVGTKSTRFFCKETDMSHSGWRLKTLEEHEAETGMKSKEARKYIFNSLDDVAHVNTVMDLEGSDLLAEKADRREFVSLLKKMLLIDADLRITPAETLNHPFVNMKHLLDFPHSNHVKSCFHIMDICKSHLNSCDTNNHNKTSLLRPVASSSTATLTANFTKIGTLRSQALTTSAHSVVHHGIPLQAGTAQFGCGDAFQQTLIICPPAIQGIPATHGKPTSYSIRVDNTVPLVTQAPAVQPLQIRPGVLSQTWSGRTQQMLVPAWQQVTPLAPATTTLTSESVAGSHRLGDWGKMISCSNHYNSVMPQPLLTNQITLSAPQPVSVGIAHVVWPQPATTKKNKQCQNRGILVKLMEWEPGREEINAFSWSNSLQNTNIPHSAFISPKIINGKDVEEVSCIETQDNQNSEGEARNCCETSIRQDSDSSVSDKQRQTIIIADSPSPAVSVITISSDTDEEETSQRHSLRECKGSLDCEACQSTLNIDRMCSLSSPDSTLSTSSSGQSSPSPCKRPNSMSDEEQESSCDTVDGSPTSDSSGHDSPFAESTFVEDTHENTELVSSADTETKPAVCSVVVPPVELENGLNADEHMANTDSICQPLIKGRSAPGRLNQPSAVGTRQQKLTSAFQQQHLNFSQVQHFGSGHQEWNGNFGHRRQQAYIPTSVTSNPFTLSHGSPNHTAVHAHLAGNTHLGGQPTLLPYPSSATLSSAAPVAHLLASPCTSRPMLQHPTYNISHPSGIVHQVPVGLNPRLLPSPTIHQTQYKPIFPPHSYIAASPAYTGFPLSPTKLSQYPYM
# Sequence of Protein kinase C eta type (Homo sapiens) (P24723 whole entry): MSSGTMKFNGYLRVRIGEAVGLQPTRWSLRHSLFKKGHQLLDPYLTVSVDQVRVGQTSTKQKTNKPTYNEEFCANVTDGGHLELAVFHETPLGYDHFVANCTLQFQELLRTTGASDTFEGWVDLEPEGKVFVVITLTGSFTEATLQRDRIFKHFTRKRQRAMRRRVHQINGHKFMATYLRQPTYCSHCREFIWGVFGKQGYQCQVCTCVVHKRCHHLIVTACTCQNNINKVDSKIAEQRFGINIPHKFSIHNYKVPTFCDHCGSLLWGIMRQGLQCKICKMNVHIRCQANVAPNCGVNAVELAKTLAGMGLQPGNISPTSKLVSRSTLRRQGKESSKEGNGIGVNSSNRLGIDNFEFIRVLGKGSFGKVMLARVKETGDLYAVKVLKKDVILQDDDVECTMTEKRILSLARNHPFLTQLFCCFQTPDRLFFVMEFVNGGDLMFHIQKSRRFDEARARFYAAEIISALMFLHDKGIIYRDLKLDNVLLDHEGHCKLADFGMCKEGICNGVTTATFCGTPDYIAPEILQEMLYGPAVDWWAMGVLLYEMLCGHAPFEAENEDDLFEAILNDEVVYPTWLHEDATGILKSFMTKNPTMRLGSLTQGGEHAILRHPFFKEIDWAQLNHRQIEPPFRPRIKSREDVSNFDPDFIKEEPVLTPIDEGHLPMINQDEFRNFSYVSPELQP
# Sequence of RAC-beta serine/threonine-protein kinase (Homo sapiens) (P31751 whole entry): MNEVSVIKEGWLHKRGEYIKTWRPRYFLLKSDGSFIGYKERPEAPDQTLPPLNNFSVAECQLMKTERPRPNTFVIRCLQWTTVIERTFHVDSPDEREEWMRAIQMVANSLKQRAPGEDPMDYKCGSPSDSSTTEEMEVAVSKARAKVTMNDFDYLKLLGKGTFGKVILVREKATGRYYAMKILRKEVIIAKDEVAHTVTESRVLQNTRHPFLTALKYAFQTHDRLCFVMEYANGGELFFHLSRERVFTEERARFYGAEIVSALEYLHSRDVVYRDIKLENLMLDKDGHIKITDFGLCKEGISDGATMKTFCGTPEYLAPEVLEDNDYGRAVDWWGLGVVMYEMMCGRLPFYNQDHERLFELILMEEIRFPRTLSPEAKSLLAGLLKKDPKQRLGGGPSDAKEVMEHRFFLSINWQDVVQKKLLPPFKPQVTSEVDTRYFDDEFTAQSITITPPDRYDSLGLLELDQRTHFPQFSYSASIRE
smiles,measurement,setting,value
C=CC(=O)Nc1ccc(C(=O)Nc2[nH]nc3c2CN(C(=O)N[C@H](CN(C)C)c2ccccc2)C3(C)C)cc1,% of engagement,[1],5.6%
CN(C)CCCOc1ccc(-c2cc(NCCCn3cccn3)nc(S(C)(=O)=O)n2)cc1,dTM,[2],< 2 K
Cc1cc(F)c(C(=O)Nc2cccc(-c3nncn3C(C)C)n2)cc1-n1cnc(C2CC2)c1,% of control,[3],91%
Cc1cnc(Nc2ccc(F)cc2Cl)nc1-c1c[nH]c(C(=O)N[C@H](CO)c2cccc(Cl)c2)c1,% of inhibition,[4],14%
COc1cc(Nc2nc(C)cc(-c3cnn4nc(OC)ccc34)n2)cc(C(F)(F)F)c1,% of control,[5],90%
C=CC(=O)Nc1cccc(C(=O)Nc2ccc(Nc3cc(-c4[nH]c(SC)nc4C)ccn3)cc2)c1,% of control,[6]; at 1 µM,84%
same,% of control,[6]; at 5 µM,94%
same,% of control,[7]; at 1 µM,102%
same,% of control,[7]; at 5 µM,80%
same,% of control,[8]; at 1 µM,90%
same,% of control,[8]; at 5 µM,80%
CNC(=O)Nc1ccc(-c2nc(N3CC4CCC(C3)O4)c3cnn(C4CCC5(CC4)OCCO5)c3n2)cc1,% of inhibition,[9],11%
same,% of control,[10],80%
O[C@H]1CC[C@H](Nc2ncc3nc(Nc4c(F)cc(F)cc4F)n([C@H]4CCOC4)c3n2)CC1,% of control,[11],100%
CC[C@@H]1[C@H](F)C(=O)N[C@@H]1COc1nccc2cc(C(N)=O)c(OC)cc12 [ZIMLOVISERTIB],% of inhibition,Misshapen-like kinase 1,18.8%
same,% of inhibition,[12],8.76%
CN(C)CCOc1ccc(-c2nc(-c3ccncc3)c(-c3ccc4c(c3)CC/C4=N\O)[nH]2)cc1,% of control,[13],62%
CCN(CC)CCCCNc1ncc2cc(-c3cc(OC)cc(OC)c3)c(NC(=O)NC(C)(C)C)nc2n1,% of control,[14],100%
CCC(=O)N1CCN(c2ccc(-n3c(=O)ccc4cnc5ccc(-c6cnc7ccccc7c6)cc5c43)cc2C(F)(F)F)CC1,% of control,[15],24%
CN(C)C/C=C/C(=O)Nc1ccc(C(=O)N2CCCC(Nc3ncc(Cl)c(-c4c[nH]c5ccccc45)n3)C2)cc1 (stereo unspecified),% of control,[16],92%
same,% of control,[17],90%
